Laboratory results from patent publication US20240261274A1, “TREATMENT OF MYC-DRIVEN CANCERS WITH GSPT1 DEGRADERS” (MONTE ROSA THERAPEUTICS, INC., priority 2021, published 2024).

Legend:
GSPT1 = GSPT1 (Homo sapiens, UniProt P15170+Q96SW2); assay: GSPT1 degradation immunofluorescence assay in CAL-51 cells; format: cell-based; parameters: endogenous in cells; host or cells: CAL-51 (DSMZ ACC302); details: 6 hours, Table 4, read-out: Activity for GSPT1 degradation, Code (DC50)
Outline: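 CAL-51 cells on fibronectin treated 6 h with compound (typically 30 μM to 0.1 nM), then fixed, permeabilised and immunostained for GSPT1, with phalloidin and DAPI. High-content imaging gave mean GSPT1 intensity per segmented cell. DC50 from non-linear regression after normalisation to DMSO and CC-885 (10 μM) controls.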

ZFP91 = biological target: T1, ZFP91 (Homo sapiens, UniProt Q96JP5+Q96SW2); assay: Selectivity western blot assay in MM1 S cells, ZFP91; format: cell-based; parameters: key: A represents no degradation observed at 30 μM; B represents trace degradation at 30 μM (below 20%); C represents weak degradation at 30 μM (below 50%); D represents degradation at 30 μM (>90%); E represents degradation at 3 μM (>90%); F represents degradation at 0.3 μM (>90%); details: MM1 S cells, 0.3, 3 and 30 μM, 6 hours
T1 construct: endogenous in cells; host or cells: MM1 S (ATCC CRL-2974)
Experimental: MM1 S cells were purchased from ATCC (cat. Number CRL-2974), sub-cultured in 90% RPMI 1640 with 10% FBS, supplemented with 1×P/S and incubated at 37° C., 5% CO2. Compounds were stored as 10 mM DMSO stock. For the assay, MM1 S cells (3 million cells/well) were plated in 6-well plates and incubated over night. Cells were treated with respective compounds using a serial dilution: 0.3 μM, 3 μM and 30 μM as well as a vehicle only (DMSO) control for 6 hours. Media with suspension cells was subsequently transferred to 15 mL conical tubes, wells rinsed twice with ice-cold PBS and merged with cell suspension in respective 15 mL conical tube. Cells were spinned down, supernatant aspirated, pellets resuspended in ice-cold PBS and transferred to microtubes. Cells were spinned down, supernatant aspirated and pellets resuspended in 120 μL RIPA lysis buffer supplemented with protease and phosphatase inhibitors. Cell lysates were incubated on ice for 20 minutes followed by centrifugation at >20,000×g for 5 min. Supernatants were transferred to fresh microtubes and stored at −80° C. Total protein concentration was determined using a BCA assay with a BSA standard curve and concentration of all samples was adjusted to 1 mg/mL. 25 μL 4×LDS sample buffer supplemented with 100 mM DTT was added to 75 μL sample. Samples were centrifuged (8,000×g, 1 min) and incubated at 95° C. for 5 min followed by another centrifugation step (8,000×g, 1 min). 20 μL of each sample was loaded on a 4-12% gel alongside a protein molecular weight marker. Gels were run in the presence of MOPS buffer at 80 Volts for 30 min, followed by 120 Volts for 1.5 h and proteins subsequently transferred onto nitrocellulose membranes at 20 Volts for 7 min using an iBlot2 Gel Transfer Device. Membranes were then cut horizontally into two pieces, covering 80-50 kDa and 50-25 kDa. Blocking the membranes was performed by gently shaking in 5% (w/v) skim milk in TSB-T for 1 hr at room temperature. All primary antibodies were used at a 1/1000 in 5% (w/v) BSA dissolved in TBST and incubated with membranes over night at 4° C. After three washes with 1×TBST for 5 min, HRP-coupled secondary antibodies diluted in 5% (w/v) BSA/TBST (Goat Anti-Rb IgG, dil. 1/10,000; Goat Anti-Mouse IgG, dil. 1/5000) were added for 1 hr at room temperature. After three washes with 1×TBST (5 minutes each), membranes were incubated with ECL reagent for 1 min at room temperature. Chemiluminescence signals were then detected using a LAS-4000 system with default settings and signals quantified using Image Studio Lite software (version 5.2). Membrane parts previously incubated with antibody against CK1 alpha were stripped off antibodies by incubating with stripping buffer for 30 minutes followed by three washed with TBST (5 min each), blocking with 5% (w/v) skim milk for 1 hr, and incubation with primary antibody against uGAPDH overnight at 4° C. Subsequent washes, incubation with secondary antibody and signal acquisition were performed as described above.

Chain of GSPT1 (P15170 whole entry): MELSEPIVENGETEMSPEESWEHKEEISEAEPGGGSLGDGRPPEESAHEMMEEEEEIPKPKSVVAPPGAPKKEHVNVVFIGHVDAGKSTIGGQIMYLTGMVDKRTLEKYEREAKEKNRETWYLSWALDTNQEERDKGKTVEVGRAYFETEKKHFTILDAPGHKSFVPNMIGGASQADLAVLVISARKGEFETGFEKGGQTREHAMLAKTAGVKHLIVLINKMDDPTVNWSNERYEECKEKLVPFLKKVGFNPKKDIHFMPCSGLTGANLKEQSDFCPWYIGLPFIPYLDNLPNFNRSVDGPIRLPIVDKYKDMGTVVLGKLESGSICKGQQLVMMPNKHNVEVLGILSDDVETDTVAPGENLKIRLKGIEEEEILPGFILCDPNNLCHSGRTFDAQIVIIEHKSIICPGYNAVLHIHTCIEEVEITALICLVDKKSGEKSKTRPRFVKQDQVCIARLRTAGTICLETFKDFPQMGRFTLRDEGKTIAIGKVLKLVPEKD
Chain of GSPT1 (Q96SW2 whole entry): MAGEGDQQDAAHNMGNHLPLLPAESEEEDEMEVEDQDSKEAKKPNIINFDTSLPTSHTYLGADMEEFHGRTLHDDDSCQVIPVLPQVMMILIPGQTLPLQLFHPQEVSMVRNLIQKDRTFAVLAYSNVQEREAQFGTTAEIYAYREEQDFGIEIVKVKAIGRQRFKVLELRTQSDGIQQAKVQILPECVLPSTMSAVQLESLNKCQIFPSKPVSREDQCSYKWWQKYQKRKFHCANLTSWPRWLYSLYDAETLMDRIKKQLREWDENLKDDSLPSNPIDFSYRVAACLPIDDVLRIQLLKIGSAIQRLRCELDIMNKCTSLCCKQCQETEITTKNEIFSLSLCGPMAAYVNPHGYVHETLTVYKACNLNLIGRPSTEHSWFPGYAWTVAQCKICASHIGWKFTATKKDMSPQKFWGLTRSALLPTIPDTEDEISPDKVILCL
Chain of GSPT1 (Q16531 whole entry partner): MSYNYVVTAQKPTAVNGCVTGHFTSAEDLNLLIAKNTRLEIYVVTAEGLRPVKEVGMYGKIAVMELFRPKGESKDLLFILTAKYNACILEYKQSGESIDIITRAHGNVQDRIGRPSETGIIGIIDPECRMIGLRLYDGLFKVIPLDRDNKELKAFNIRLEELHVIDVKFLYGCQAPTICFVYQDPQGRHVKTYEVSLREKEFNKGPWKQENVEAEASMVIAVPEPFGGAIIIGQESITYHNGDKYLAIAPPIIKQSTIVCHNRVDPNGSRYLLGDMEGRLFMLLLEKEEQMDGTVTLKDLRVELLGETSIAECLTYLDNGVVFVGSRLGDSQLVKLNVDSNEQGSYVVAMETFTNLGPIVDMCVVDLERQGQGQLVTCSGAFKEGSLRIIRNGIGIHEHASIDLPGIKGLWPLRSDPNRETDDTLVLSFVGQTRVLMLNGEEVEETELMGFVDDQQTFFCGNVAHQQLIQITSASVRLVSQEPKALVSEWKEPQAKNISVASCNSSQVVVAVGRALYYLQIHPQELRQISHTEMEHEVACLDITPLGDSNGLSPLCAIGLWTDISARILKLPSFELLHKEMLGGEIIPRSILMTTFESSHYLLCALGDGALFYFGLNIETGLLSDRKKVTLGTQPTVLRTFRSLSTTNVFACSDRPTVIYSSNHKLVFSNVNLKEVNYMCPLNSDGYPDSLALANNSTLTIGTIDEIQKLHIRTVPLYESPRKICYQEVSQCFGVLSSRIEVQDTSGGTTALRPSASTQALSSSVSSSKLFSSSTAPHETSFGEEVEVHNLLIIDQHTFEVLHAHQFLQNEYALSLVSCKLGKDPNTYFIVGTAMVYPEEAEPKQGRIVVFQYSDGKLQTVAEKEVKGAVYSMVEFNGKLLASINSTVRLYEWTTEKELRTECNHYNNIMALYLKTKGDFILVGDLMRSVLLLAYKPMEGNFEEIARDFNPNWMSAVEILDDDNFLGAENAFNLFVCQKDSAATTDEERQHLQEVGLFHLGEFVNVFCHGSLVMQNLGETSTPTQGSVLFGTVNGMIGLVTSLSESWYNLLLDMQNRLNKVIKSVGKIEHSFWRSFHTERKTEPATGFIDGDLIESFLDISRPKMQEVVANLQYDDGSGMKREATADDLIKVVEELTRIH
T1 sequence (Q96JP5 whole entry): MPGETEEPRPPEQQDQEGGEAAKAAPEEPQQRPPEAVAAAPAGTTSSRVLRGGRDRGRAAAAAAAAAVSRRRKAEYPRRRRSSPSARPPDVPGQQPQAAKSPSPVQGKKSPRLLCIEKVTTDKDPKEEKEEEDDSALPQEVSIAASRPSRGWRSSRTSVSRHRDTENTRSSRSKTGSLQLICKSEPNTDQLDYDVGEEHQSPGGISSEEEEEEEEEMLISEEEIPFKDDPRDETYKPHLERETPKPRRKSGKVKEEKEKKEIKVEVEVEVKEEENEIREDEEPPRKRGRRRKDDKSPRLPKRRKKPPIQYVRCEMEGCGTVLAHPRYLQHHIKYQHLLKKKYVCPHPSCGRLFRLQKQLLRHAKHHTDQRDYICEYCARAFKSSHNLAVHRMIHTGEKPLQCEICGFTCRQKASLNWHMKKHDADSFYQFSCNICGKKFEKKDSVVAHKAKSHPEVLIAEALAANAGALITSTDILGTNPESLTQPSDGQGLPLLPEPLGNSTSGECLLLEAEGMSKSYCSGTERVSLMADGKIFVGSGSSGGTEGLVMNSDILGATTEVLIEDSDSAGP
T1 sequence (Q96SW2 whole entry): as the sequence (Q96SW2 whole entry) above
T1 sequence (Q16531 whole entry partner): as the sequence (Q16531 whole entry partner) above

| SMILES | DC50 (GSPT1) [nM] | ZFP91 degradation (ZFP91) |
| --- | --- | --- |
| Cc1ccc(NC(=O)NCc2ccc3c(c2)C(=O)N(C2CCC(=O)NC2=O)C3)cc1Cl (stereo not shown) [Compound 8] | ≤ 100 | B (B represents trace degradation at 30 μM (below 20%)) |
| Cc1c(Cl)cc(NC(=O)NCc2ccc3c(c2)C(=O)N(C2CCC(=O)NC2=O)C3)cc1CN1C2CCC1COC2 (stereo not shown) [Compound 138] | ≤ 100 | A |
